Read-outs that look alike come from different tables or passages of the source.
Columns and labels:
[1] = test system: LPS-induced microglia activation; test: Image-based assay of LPS-induced microglia activation (HTS and dose response); type: cell-based, rat
primary rat microglia [2] = test system: primary rat microglia;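 as to Fibrin % cell toxicity: share of dead cells sized under 150 µm2 at 10 µM in fibrin-stimulated microglia HTS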
[3] = test system: fibrin-induced microglia activation; test: Image-based assay of fibrin-induced microglia activation (HTS and dose response); type: cell-based, rat; details: for inhibition at 10 µM: Rattus norvegicus, Microglia, read-out: Fibrin % inhibition
primary rat microglia [4] = test system: primary rat microglia; remark: listed apart in the source;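 as to Fibrin % cell toxicity: share of dead cells sized under 150 µm2 at 10 µM in fibrin-stimulated microglia HTS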
[5] = test system: fibrin- and LPS-induced microglia activation; test: cells; type: cell-based, rat
[6] = Rattus norvegicus, Microglia, read-out: LPS % inhibition
[7] = Rattus norvegicus, Microglia, primary microglia HTS, 10 μM, LPS-stimulated, cell size >800 μm^2 as marker of activation; read-out: LPS % inhibition
[8] = primary microglia HTS, 10 μM, fibrin-stimulated, cell size >800 μm^2 as marker of activation
[9] = HTS of 1907 compounds, quadrant by fibrin and LPS inhibition
[10] = Rattus norvegicus, Microglia, 48 h, read-out: LPS % inhibition
[11] = Rattus norvegicus, Microglia, 48 h, primary microglia HTS, LPS stimulation, activation = cell size >800 μm2; read-out: LPS % inhibition
[12] = primary microglia HTS, fibrin stimulation, activation = cell size >800 μm2
[13] = quadrant by fibrin and LPS inhibition in HTS of 1907 compounds
[14] = primary microglia HTS, fibrin stimulation, cell size >800 μm2 as marker of activation
[15] = classification by fibrin and LPS inhibition in HTS
[16] = Rattus norvegicus, Microglia, 48 h; read-out: LPS % inhibition
[17] = Rattus norvegicus, Microglia, primary microglia HTS, LPS stimulation, compounds at 10 μM; read-out: LPS % inhibition
[18] = primary microglia HTS, fibrin stimulation, compounds at 10 μM
[19] = Rattus norvegicus, Microglia, 48 h, primary microglia HTS, LPS stimulation; increased cell size (>800 μm^2) as marker of activation; read-out: LPS % inhibition
[20] = primary microglia HTS, fibrin stimulation, increased cell size (>800 μm^2) as marker of activation
[21] = primary HTS, 10 μM, fibrin-stimulated primary microglia

Row | SMILES | LPS % cell toxicity (primary rat microglia [2]; rat) | inhibition at 10 µM [3] | Fibrin % cell toxicity (primary rat microglia [4]; rat) | Quadrant (FIG. 5b) [5] | also measured
1 | CCCCNC(=O)NS(=O)(=O)c1ccc(C)cc1 [Tolbutamide] | 0% | 31% | 1% | Q4 | inhibition at 10 µM [1, 6]: 24%
2 | Clc1ccc(Nc2nnc(Cc3ccncc3)c3ccccc23)cc1 [Vatalanib] | 0% | – | 1% | – | inhibition at 10 µM [1, 7]: -3%; inhibition at 10 µM [3, 8]: -26%; Quadrant (FIG. 5b) [5, 9]: Q4
3 | c1ccc([C@H]2CN3CCSC3=N2)cc1 [Levamisole] | 0% | -15% | 0% | Q4 | inhibition at 10 µM [1, 10]: 12%
4 | FC(F)(F)C(Cl)Br (centres unmarked) [Halothane] | 0% | – | 1% | – | inhibition at 10 µM [1, 11]: 17%; inhibition at 10 µM [3, 12]: 17%; Quadrant (FIG. 5b) [5, 13]: Q4
5 | CN(C/C=C/c1ccccc1)Cc1cccc2ccccc12 [Naftifine] | 0% | -12% | 0% | Q4 | inhibition at 10 µM [1, 10]: 3%
6 | CC(C)CC(N(C)C)C1(c2ccc(Cl)cc2)CCC1 (centres unmarked) [Sibutramine] | 0% | – | 1% | – | inhibition at 10 µM ([1]; Rattus norvegicus, Microglia, 48 h, primary microglia HTS, LPS stimulation, cell size >800 μm2 as marker of activation; read-out: LPS % inhibition): 8%; inhibition at 10 µM [3, 14]: -12%; Quadrant (FIG. 5b) [5, 15]: Q4
7 | Cc1ccc(C(C)C)c(O)c1 [Thymol] | 0% | – | 1% | – | inhibition at 10 µM [1, 7]: 20%; inhibition at 10 µM [3, 8]: 15%; Quadrant (FIG. 5b) [5, 9]: Q4
8 | CC(C)NCC(O)c1ccc(NS(C)(=O)=O)cc1 (centres unmarked) [Sotalol] | 0% | – | 1% | – | inhibition at 10 µM [1, 16]: 6%; inhibition at 10 µM [3, 14]: 6%; Quadrant (FIG. 5b) [5, 15]: Q4
9 | O=c1oc2c(O)c(O)cc3c(=O)oc4c(O)c(O)cc1c4c23 [Ellagic Acid] | 0% | – | 1% | – | inhibition at 10 µM [1, 17]: 24%; inhibition at 10 µM [3, 18]: -5%; Quadrant (FIG. 5b) ([5]; classification by fibrin and LPS inhibition, HTS at 10 μM): Q4
10 | CC(=O)N1CCN(c2ccc(OCC3COC(Cn4ccnc4)(c4ccc(Cl)cc4Cl)O3)cc2)CC1 (centres unmarked) [Ketoconazole] | 0% | -57% | 0% | Q4 | inhibition at 10 µM [1, 10]: -1%
11 | NNc1nncc2ccccc12 [Hydralazine] | 0% | -13% | 1% | Q4 | inhibition at 10 µM [1, 10]: 22%
12 | COC(=O)[C@H]1[C@H]2C[C@@H]3c4[nH]c5cc(OC)ccc5c4CCN3C[C@H]2C[C@@H](OC(=O)c2cc(OC)c(OC)c(OC)c2)[C@@H]1OC [Reserpine] | 7% | – | 3% | – | inhibition at 10 µM [1, 19]: 64%; inhibition at 10 µM [3, 20]: -4%; Quadrant (FIG. 5b) [5, 13]: Q1
13 | CCCN(CCC)S(=O)(=O)c1ccc(C(=O)O)cc1 [Probenecid] | 0% | – | 1% | – | inhibition at 10 µM [1, 16]: 13%; inhibition at 10 µM [3, 14]: 14%; Quadrant (FIG. 5b) [5, 15]: Q4
14 | CCCC(C)C1(CC)C(=O)NC(=S)NC1=O (centres unmarked) [Thiopental] | 0% | 3% | 0% | Q4 | inhibition at 10 µM [1, 6]: 13%
15 | CC(C)=CC1C(C(=O)OCc2cccc(Oc3ccccc3)c2)C1(C)C (centres unmarked) [Phenothrin] | 0% | – | 0% | – | inhibition at 10 µM [1, 16]: 11%; inhibition at 10 µM [3, 14]: -50%; Quadrant (FIG. 5b) [5, 15]: Q4
16 | CN(C)c1ccc(C(=C2C=CC(=[N+](C)C)C=C2)c2ccc(N(C)C)cc2)cc1 [Gentian Violet] | 73% | – | 38% | – | inhibition at 10 µM [1, 19]: 118%; inhibition at 10 µM [3, 20]: 117%; Quadrant (FIG. 5b) [5, 13]: Q2
17 | Cc1ncc([N+](=O)[O-])n1CCO [Metronidazole] | 1% | – | 0% | – | inhibition at 10 µM [1, 19]: 15%; inhibition at 10 µM [3, 20]: -12%; Quadrant (FIG. 5b) [5, 13]: Q4
18 | CC(=O)CCCCn1c(=O)c2c(ncn2C)n(C)c1=O [Pentoxifylline] | 0% | – | 0% | – | inhibition at 10 µM [1, 16]: 6%; inhibition at 10 µM [3, 14]: 4%; Quadrant (FIG. 5b) [5, 15]: Q4
19 | Cn1c(=O)c2[nH]cnc2n(C)c1=O [Aminophylline, Theophylline] | – | – | – | Q4 | LPS % inhibition ([1]; 10 µM): 25%; LPS % cell toxicity (primary rat microglia [2]): 0%; Fibrin % inhibition ([3]; 10 µM): 35%; Fibrin % cell toxicity (primary rat microglia [4]): 1%
20 | CCOC(=O)c1ncn2c1CN(C)C(=O)c1cc(F)ccc1-2 [Flumazenil] | 1% | – | 1% | – | inhibition at 10 µM [1, 11]: 14%; inhibition at 10 µM [3, 12]: 5%; Quadrant (FIG. 5b) [5, 13]: Q4
21 | O=C(c1ccc(OCCN2CCCCC2)cc1)c1c(-c2ccc(O)cc2)sc2cc(O)ccc12 [Raloxifene] | 1% | – | 0% | – | inhibition at 10 µM [1, 19]: 60%; inhibition at 10 µM [3, 20]: 7%; Quadrant (FIG. 5b) [5, 13]: Q1
22 | CN(C)C(=N)N=C(N)N [Metformin] | 0% | -15% | 0% | Q4 | inhibition at 10 µM [1, 10]: 0%
23 | CO/N=C(\C(=O)N[C@@H]1C(=O)N2C(C(=O)O)=C(COC(N)=O)CS[C@H]12)c1ccco1 [Cefuroxime Sodium] | 1% | – | 1% | – | LPS % inhibition ([1]; primary HTS, 10 μM, LPS-stimulated primary microglia): 19%; Fibrin % inhibition [3, 21]: −12%; Quadrant (FIG. 5b) ([5]; primary HTS, 10 μM): Q4
24 | CC1CCC(C(C)C)C(O)C1 (centres unmarked) [Menthol] | 0% | -20% | 1% | Q4 | inhibition at 10 µM [1, 10]: 0%
25 | COC(=O)[C@H](c1ccccc1Cl)N1CCc2sccc2C1 [Clopidogrel] | 0% | -24% | 1% | Q4 | inhibition at 10 µM [1, 6]: 7%
26 | CS(=O)(=O)OCCCCOS(C)(=O)=O [Busulfan] | 0% | – | 0% | – | inhibition at 10 µM ([1]; Rattus norvegicus, Microglia, primary HTS, 10 μM, LPS-stimulated primary microglia; read-out: LPS % inhibition): 2%; inhibition at 10 µM [3, 21]: 1%; Quadrant (FIG. 5b) ([5]; primary HTS, 10 μM): Q4
27 | CC[C@H]1[C@@H]2C[C@H]3[C@@H]4N(C)c5ccccc5[C@]45C[C@@H]([C@H]2[C@H]5O)N3[C@@H]1O [Ajmaline] | 0% | – | 1% | – | inhibition at 10 µM [1, 17]: 13%; inhibition at 10 µM [3, 18]: -6%; Quadrant (FIG. 5b) ([5]; quadrant by fibrin and LPS inhibition, HTS at 10 μM): Q4
28 | CN(Cc1cnc2nc(N)nc(N)c2n1)c1ccc(C(=O)N[C@@H](CCC(=O)O)C(=O)O)cc1 [Methotrexate] | 0% | – | 1% | – | inhibition at 10 µM [1, 19]: -4%; inhibition at 10 µM [3, 20]: -32%; Quadrant (FIG. 5b) [5, 13]: Q4
